Key:
[1] = HD patients, as a result of phenylbutyrate treatments
Description: (§1) Peripheral blood samples were collected from 62 HD subjects and 53 age- and gender-matched healthy controls. The HD group included a cohort of 9 early asymptomatic carriers of the gene mutation, as determined by genetic testing, consisting of 5 females and 4 males with the average age of 22.5±2.6 years. An additional group of 21 late presymptomatic carriers of the HD mutation was also included in the study. Of these, 11 were females and 10 were males with the average age of 39±6.1. An additional 32 patients were symptomatic, 17 females and 15 males, with the average age of 49.6±5.9. The determination of the neurological status of the HD patients utilized the Huntington's Disease Rating Scale (UHDRS) performed by an experienced HD neurologist. All of the symptomatic patients were in Stage I or II of disease, as determined by the total functional capacity scores (TFC 7-12). All samples were obtained in accordance with the Institutional Review Boards and participants gave written informed consent. Blood samples were also obtained from 12 symptomatic patients (7 males and 5 females) participating in a dose-finding study of the HDAC inhibitor, sodium phenylbutyrate (SPB 11, Scandinavian Designs, Sellersville, Pa.) at Oregon Health and Science University. The dosage of sodium phenylbutyrate in these subjects ranged from 12 to 18 grams per day administered in 3 doses.

[2] = system: Huntington's disease symptoms; conditions: HD patients, dose-finding study not powered to detect alterations in symptoms or progression
Description: as §1

[3] = system: 12-gene marker set (ANXA1, AXOT, CAPZA1, HIF1A, JJAZ1, P2Y5, PCNP, ROCK1, SF3B1, SP3, TAF7, YIPPEE) mRNA in blood; conditions: 12 HD patients, after 4 weeks of treatment, QRT-PCR, P<0.05
Description: as §1

[4] = system: transgenic mouse models of HD; conditions: Gardian et al., J. Biol. Chem. 280: 556-563, 2005; cited from earlier work

O=C([O-])CCCc1ccccc1.[Na+] [phenylbutyrate, sodium phenylbutyrate]
total and differential cell blood counts [1]: no consistent differences | symptomatic effects [2]: no significant symptomatic effects | expression of each individual gene of the marker set in blood after treatment compared to untreated samples [3]: 8 out of 12 genes were significantly decreased and statistically significant decrease in expression of 8 out of 12 genes | neuroprotective effects [4]: significant neuroprotective effects

— patent publication US20070015183A1, “Biomarkers for huntington's disease” (The General Hospital Corporation, priority 2005, published 2007)
